Like-named read-outs stand apart in the source and are kept apart here. Peptide text beside a SMILES is read from it.
Columns and labels:
HS-68 and Hela cells = test: Toxicity of CADY variants, MTT cell viability assay (Table 1); type: cell-based
Experimental: The toxicity of CADY peptides has been investigated on different cell lines. Cells were incubated in the presence of increasing concentrations of CADY (from 0.1 µM to 1 mM) for 12 hrs and cell viability was estimated using MTT assay.

different cell lines = type: cell-based; settings: 12 h
Experimental: • Figure 1 : Schematic representation of CADY cellular uptake mechanism. • Figure 2 : Structure of CADY in the interaction with the membrane. • (A) modelisation • (B) CD experiments - Far UV CD spectra were recorded on a JASCO J-810 spectro-polarimeter (JASCO Corporation, Tokyo, Japan) using a quartz cuvette with a path length of 1 mm. Spectra were corrected from the baseline buffer spectrum and smoothed with the JASCO software. Peptides were dissolved to a fixed concentration of 50 µM in water or in PBS. CD spectra were collected at 23°C and each spectrum represents the average of 4 scans. […] Binding of cargoes to CADY was monitored by steady state fluorescence spectroscopy. The intrinsic fluorescence associated to the Trp residues of CADY was used as sensitive probe. The fluorescence of CADY is centered at 340 nm upon excitation at 290 nm. […] The knockdown of the GAPDH at the protein level was quantified 48 hrs after transfection by Western blot analysis using polyclonal antibody (Ref. ABCAM GAPDH antibody - ab9385 rabbit polyclonal). […] The size of the particle was determined by light scattering and the knock down of GAPDH protein was quantified by Western blot analysis. • (B) role of the endosomal pathway on the efficiency of CADY-mediated siRNA delivery. […]

[1] = test system: 5PC3 or Human H1299 adenocarcinoma cells; test: Intravenous injection of carrier/anti-cyclin B1 siRNA complexes, tumor growth; type: in vivo, NCR nude mice; settings: one intravenous injection, siRNA 10 µg, ratio 1:20

Structure (SMILES)	EC50 (HS-68 and Hela cells; free peptide, MTT, read-out: free EC50) [µM]	EC50 (different cell lines) [µM]	EC50 (HS-68 and Hela cells; 12 h) [µM]	tumor growth [1]
CC(=O)NCC(=O)N[C@@H](CC(C)C)C(=O)N[C@@H](Cc1c[nH]c2ccccc12)C(=O)N[C@@H](CCCNC(=N)N)C(=O)N[C@@H](C)C(=O)N[C@@H](CC(C)C)C(=O)N[C@@H](Cc1c[nH]c2ccccc12)C(=O)N[C@@H](CCCNC(=N)N)C(=O)N[C@@H](CC(C)C)C(=O)N[C@@H](CC(C)C)C(=O)N[C@@H](CCCNC(=N)N)C(=O)N[C@@H](CO)C(=O)N[C@@H](CC(C)C)C(=O)N[C@@H](Cc1c[nH]c2ccccc12)C(=O)N[C@@H](CCCNC(=N)N)C(=O)N[C@@H](CC(C)C)C(=O)N[C@@H](CC(C)C)C(=O)N[C@@H](Cc1c[nH]c2ccccc12)C(=O)N[C@@H](CCCCN)C(=O)N[C@@H](C)C(=O)NCCS [CADY-1] (HELM PEPTIDE1{[ac].G.L.W.R.A.L.W.R.L.L.R.S.L.W.R.L.L.W.K.A.[SCCN[*:1]]}$$$$V2.0)	400	500	–	–
CC(C)CCC[C@@H](C)[C@H]1CC[C@H]2[C@@H]3CC=C4C[C@@H](OC(=O)NCC(=O)N[C@@H](CC(C)C)C(=O)N[C@@H](Cc5c[nH]c6ccccc56)C(=O)N[C@@H](CCCNC(=N)N)C(=O)N[C@@H](C)C(=O)N[C@@H](CC(C)C)C(=O)N[C@@H](Cc5c[nH]c6ccccc56)C(=O)N[C@@H](CCCNC(=N)N)C(=O)N[C@@H](CC(C)C)C(=O)N[C@@H](CC(C)C)C(=O)N[C@@H](CCCNC(=N)N)C(=O)N[C@@H](CO)C(=O)N[C@@H](CC(C)C)C(=O)N[C@@H](Cc5c[nH]c6ccccc56)C(=O)N[C@@H](CCCNC(=N)N)C(=O)N[C@@H](CC(C)C)C(=O)N[C@@H](CC(C)C)C(=O)N[C@@H](Cc5c[nH]c6ccccc56)C(=O)N[C@@H](CCCCN)C(=O)N[C@@H](C)C(=O)NCCS)CC[C@]4(C)[C@H]3CC[C@]12C [CADY-S] (HELM PEPTIDE1{[CC(C)CCC[C@@H](C)[C@H]1CC[C@H]2[C@@H]3CC=C4C[C@@H](OC(=O)[*:2])CC[C@]4(C)[C@H]3CC[C@]12C].G.L.W.R.A.L.W.R.L.L.R.S.L.W.R.L.L.W.K.A.[SCCN[*:1]]}$$$$V2.0; N-terminus assumed)	–	–	200	fully abolish the tumor growth
